In US20230286973A1, “PROTEIN SECRETION INHIBITORS” (KEZAR LIFE SCIENCES, priority 2020, published 2023):
Like-named read-outs stand apart in the source and are kept apart here.

Tests used:
[1] = test system: TNFα-FL/Gaussia Luciferase; experiment: Dox Induced TNFα-FL-Gluc Assay; format: cell-based; details: for IC50: 24 hr Dox induction, 293FRT/TO cells, read-out: 24 hr Dox Inducible TNFaFLGluc 293FRT/TO: Mean IC50; for 24 hr Dox Inducible TNFaFLGluc 293FRT/TO: TNF/PD1: ratio of TNFaFLGluc IC50 to PD1ssGluc IC50
In short: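 Stereoisomer mixtures were tested where stereochemistry is not drawn. Induction used doxycycline added together with compound dilutions in DMSO/media to Flp-In 293 T-REx cells carrying a T-REx-regulated TNFα (aa 1-233)-Gaussia luciferase construct, then incubated at 37 °C, 5% CO2.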

[2] = Liver Microsome Stability Assay (mouse); details: mouse liver microsomes, with NADPH, 1.0 uM compound
Protocol: (§1) Stability of a compound was assessed in the presence of liver microsomes from various sources—mouse, rat, monkey and human liver microsomes. 1.0 uM compound, 0.4% DMSO in 0.1 M Potassium Phosphate with 1.0 mg/mL liver microsomes, were incubated at 37° C. with or without 1 mM NADPH. The samples were quenched at 0, and 30 minutes.

[3] = Liver Microsome Stability Assay (human); details: human liver microsomes, with NADPH, 1.0 uM compound
Protocol: as §1

[4] = test system: multiple myeloma cell line NCI-H929; experiment: H929 Cell Viability Assay; format: cell-based, human; details: Homo sapiens, NCI-H929, 48 h, NCI-H929 cells, Celltiter-Glo
In short: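 Luminescent ATP detection (CellTiter-Glo) after 48 hours of compound exposure measures viability. Cells were plated in RPMI 1640 containing 10% fetal bovine serum and kept at 37° C under 5% CO2.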

[5] = Liver Microsome Stability Assay (rat); details: rat liver microsomes, with NADPH, 1.0 uM compound
Protocol: as §1

[6] = test system: IL-2-FL/Gaussia Luciferase; experiment: Dox Induced IL2-FL-Gluc Assay; format: cell-based; details: for IC50: 24 hr Dox induction, 293FRT/TO cells, read-out: 24 hr Dox Inducible IL2FLGluc 293FRT/TO: Mean IC50; for 24 hr Dox Inducible IL2FLGluc 293FRT/TO: IL2/PD1: ratio of IL2FLGluc IC50 to PD1ssGluc IC50
In short: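 Cells are plated one day ahead, then receive compound dilutions in DMSO/media with doxycycline and incubate at 37° C, 5% CO2. They are Flp-In 293 T-REx cells expressing a full-length IL-2 (amino acids 1-153)–Gaussia luciferase fusion under T-REx control.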

[7] = test system: multiple myeloma cell line U266B1; experiment: U266 Cell Viability Assay; format: cell-based, human; details: Homo sapiens, U-266, 48 h, U266B1 cells, Celltiter-Glo
In short: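 Steps: culture in RPMI 1640 plus 10% FBS and 2 mM glutamine; plate and add compound dilutions; incubate 48 hours at 37° C., 5% CO2; add CellTiter-Glo and quantify luciferase signal.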

[8] = Liver Microsome Stability Assay (monkey); details: monkey liver microsomes, with NADPH, 1.0 uM compound
Protocol: as §1

[9] = test system: PD1-ss+10aa/Gaussia Luciferase; experiment: Dox-Induced PD1-ss-Gluc Assay; format: cell-based; details: 24 hr Dox induction, 293FRT/TO cells, read-out: 24 hr Dox Inducible PD1ssGluc 293FRT/TO: Mean IC50
In short: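 Doxycycline-induced expression of a PD1-ss+10aa/Gaussia luciferase reporter is measured in stable Flp-In 293 T-REx cells. Compound dilutions containing doxycycline are added one day after plating and incubated at 37 °C, 5% CO2. Values for unassigned stereocentres refer to stereoisomer mixtures.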

[10] = test system: HER3-ss+4aa/Gaussia Luciferase; experiment: Dox-Induced Her3-ss-Gluc Assay; format: cell-based; details: 24 hr Dox induction, 293FRT/TO cells, read-out: 24 hr Dox Inducible Her3(ss + 4)Gluc 293FRT/TO: Mean IC50
In short: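 Cells were seeded a day ahead, then given compound diluted in DMSO/media with doxycycline to induce expression of the HER3 signal sequence (+4 aa)–Gaussia luciferase fusion. Incubation was at 37° C., 5% CO2, in a stable Flp-In 293 T-REx line.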

[11] = '<=>' given where both are I.A.

Row | Structure (SMILES) | IC50 ([1]; mean) | 24 hr Dox Inducible TNFaFLGluc 293FRT/TO: TNF/PD1 [1, 11] | Liver Microsome Stability (Multiple Species): Mouse - % Remaining after 30 min w/NADPH [2] | Liver Microsome Stability (Multiple Species): Human - % Remaining after 30 min w/NADPH [3] | EC50 [4] | Liver Microsome Stability (Multiple Species): Rat - % Remaining after 30 min w/NADPH [5] | IC50 ([6]; mean) | 24 hr Dox Inducible IL2FLGluc 293FRT/TO: IL2/PD1 [6, 11] | EC50 [7] | Liver Microsome Stability (Multiple Species): Monkey - % Remaining after 30 min w/NADPH [8] | IC50 ([9]; mean) | IC50 ([10]; mean) | IC50 [1] | 24 hr Dox Inducible TNFaFLGluc 293FRT/TO: TNF/PD1 [1] | IC50 [6] | 24 hr Dox Inducible IL2FLGluc 293FRT/TO: IL2/PD1 [6] | IC50 [9] | IC50 [10]
1 | C/C(=C\c1csc(NC(=O)c2cccn2Cc2ccncc2)n1)c1ccc(OC(F)(F)F)cn1 [Compound E5, (E)-1-(pyridin-4-ylmethyl)-N-(4-(2-(5-(trifluoromethoxy)pyridin-2-yl)prop-1-en-1-yl)thiazol-2-yl)-1H-pyrrole-2-carboxamide] | > 25000 nM | >199 | 16.7% | 5.77% | 8090 nM | 46.1% | 1230 nM | 9.8 | 19600 nM | 2.47% | 125 nM | 1060 nM |  |  |  |  |  | 
2 | O=C(Nc1nc(/C=C/c2cn(-c3ccccc3)cn2)cs1)c1cccn1Cc1ccnc(F)c1 [Compound B104, (E)-1-((2-fluoropyridin-4-yl)methyl)-N-(4-(2-(1-phenyl-1H-imidazol-4-yl)vinyl)thiazol-2-yl)-1H-pyrrole-2-carboxamide] |  |  | 4.41% | 0.21% | > 25000 nM | 2.24% |  |  | > 25000 nM | 0.14% |  |  | 4990 nM | 809 | 1280 nM | 210 | 6.16 nM | 785 nM
3 | O=C(Nc1nc(-c2cccc(-c3ccccn3)c2)cs1)c1cccn1Cc1ccnc(F)c1 [Compound A162, 1-((2-fluoropyridin-4-yl)methyl)-N-(4-(3-(pyridin-2-yl)phenyl)thiazol-2-yl)-1H-pyrrole-2-carboxamide] |  |  | 7.13% | 1.91% | > 25000 nM | 8.48% |  |  | > 25000 nM | 0.25% |  |  | > 25000 nM | >33.0 | 1770 nM | 2.4 | 758 nM | 1270 nM
4 | CC(C)n1cnc(/C=C/c2csc(NC(=O)c3cccn3CC3CCOCC3)n2)c1 [Compound D7, (E)-N-(4-(2-(1-isopropyl-1H-imidazol-4-yl)vinyl)thiazol-2-yl)-1-((tetrahydro-2H-pyran-4-yl)methyl)-1H-pyrrole-2-carboxamide] | > 25000 nM | >8.84 | 0.56% | 0.04% | > 25000 nM | 2.55% | > 25000 nM | >8.8 | > 25000 nM | 0.07% | 2830 nM | > 25000 nM |  |  |  |  |  | 
5 | CC(C)c1cc(/C=C/c2csc(NC(=O)c3cccn3Cc3ccnc(F)c3)n2)no1 [Compound B90, (E)-1-((2-fluoropyridin-4-yl)methyl)-N-(4-(2-(5-isopropylisoxazol-3-yl)vinyl)thiazol-2-yl)-1H-pyrrole-2-carboxamide] |  |  | 10.8% | 0.87% | 22800 nM | 5.78% |  |  | > 25000 nM | 0.54% |  |  | > 25000 nM | >150 | 1170 nM | 7 | 167 nM | 690 nM
6 | CC(C)n1cnc(/C=C/Cc2csc(NC(=O)c3cccn3Cc3ccnc(F)c3)n2)c1 [Compound B106, (E)-1-((2-fluoropyridin-4-yl)methyl)-N-(4-(3-(1-isopropyl-1H-imidazol-4-yl)allyl)thiazol-2-yl)-1H-pyrrole-2-carboxamide] |  |  | 0.95% | 0.59% | > 25000 nM | 5.01% |  |  | > 25000 nM | 0.06% |  |  | > 25000 nM | >36.1 | 3010 nM | 4.3 | 692 nM | 1280 nM
7 | O=C(Nc1nc([C@H]2CCCN2c2ccc(OCCO)cc2)cs1)c1cccn1Cc1ccnc(F)c1 [Compound A134, (R)-1-((2-fluoropyridin-4-yl)methyl)-N-(4-(1-(4-(2-hydroxyethoxy)phenyl)pyrrolidin-2-yl)thiazol-2-yl)-1H-pyrrole-2-carboxamide] |  |  | 2.18% | 19.3% | 849 nM | 13.6% |  |  | > 25000 nM | 13.5% |  |  | 526 nM | 19.3 | 42.4 nM | 1.6 | 27.3 nM | 47.8 nM
8 | CC(C)n1cncc1/C=C/c1csc(NC(=O)c2cccn2Cc2ccncc2)n1 [Compound B57, (E)-N-(4-(2-(1-isopropyl-1H-imidazol-5-yl)vinyl)thiazol-2-yl)-1-(pyridin-4-ylmethyl)-1H-pyrrole-2-carboxamide] |  |  | 17.3% | 17.5% | 16300 nM | 34.4% |  |  | > 24200 nM | 2.84% |  |  | 16700 nM | 5.83 | > 25000 nM | >8.7 | 2860 nM | > 25000 nM
9 | CC(=O)Nc1cc(F)c(N2CCC[C@@H]2c2csc(NC(=O)c3cccn3Cc3ccnc(F)c3)n2)c(F)c1 [Compound A96, (R)-N-(4-(1-(4-acetamido-2,6-difluorophenyl)pyrrolidin-2-yl)thiazol-2-yl)-1-((2-fluoropyridin-4-yl)methyl)-1H-pyrrole-2-carboxamide] |  |  | 0.28% | 1.42% | 34.2 nM | 1% |  |  | > 25000 nM | 0.12% |  |  | 40.5 nM | 27.2 | 4.21 nM | 2.8 | 1.49 nM | 4.2 nM
